From patent US20260199484A1, “PROTAC DEGRADERS OF MLLT1 AND/OR MLLT3” (DARK BLUE THERAPEUTICS LTD, priority 2024, published 2026)

Legend:
MLLT1 [1] = molecular target: T1, MLLT1 (Homo sapiens, UniProt Q03111); test: MLLT1 DC50 and Dmax determination in MV4-11 cells (JESS, 4 h); assay type: cell-based; parameters: endogenous in cells; host or cells: MV4-11 (ATCC CRL-9591); conditions: MLLT1 degradation
T1 sequence (Q03111 1-559): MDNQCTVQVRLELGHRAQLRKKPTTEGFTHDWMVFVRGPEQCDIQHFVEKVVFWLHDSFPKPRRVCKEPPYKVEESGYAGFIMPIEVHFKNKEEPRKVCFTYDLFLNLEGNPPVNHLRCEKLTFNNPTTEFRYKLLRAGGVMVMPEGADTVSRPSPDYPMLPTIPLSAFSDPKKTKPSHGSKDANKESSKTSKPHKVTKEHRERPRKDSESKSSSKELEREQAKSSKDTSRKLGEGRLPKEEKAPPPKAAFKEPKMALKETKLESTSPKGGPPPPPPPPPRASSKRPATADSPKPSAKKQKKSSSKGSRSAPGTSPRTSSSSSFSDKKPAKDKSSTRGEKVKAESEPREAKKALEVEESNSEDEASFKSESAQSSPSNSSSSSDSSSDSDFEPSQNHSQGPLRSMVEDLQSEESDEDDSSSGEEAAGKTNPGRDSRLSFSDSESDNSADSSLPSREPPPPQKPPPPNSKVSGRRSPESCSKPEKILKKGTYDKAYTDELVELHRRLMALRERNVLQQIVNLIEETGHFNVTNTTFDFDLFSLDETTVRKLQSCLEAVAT
Experimental: MLLT1 degradation efficacy of compounds was tested in an automated chemiluminescent detection system (JESS, Cat #004-650). MV4-11 (#CRL-9591, ATCC) were seeded at a density of 1.2 million cells/well in a non-treated 6-well cell culture plate in 2.4 mL of complete medium (IMDM+10% FBS+1× Penicillin-Streptomycin). 10 mM DMSO stocks were prepared, and cells were treated with eight concentrations of test compounds, starting from 100 nM, 5-fold dilution, at a final DMSO concentration of 0.1% and incubated for 4 h at 37° C., 5% CO2. Post incubation, cells were centrifuged, washed with HBSS and lysed in 60 μL of RIPA buffer supplemented with Protease inhibitors (sc-24948; Santa Cruz). Protein estimation was done using BCA protein assay kit (23228; Pierce). 4 gg protein lysate (4 μL of 1 μg/μL lysate) was loaded into each well of the JESS cartridge (SM-W004; Bio-techne) and the JESS run was performed using 1:900 dilution of anti-human MLLT1 antibody (ABE2596; Merck) and 1:1200 dilution of anti-human GAPDH antibody (2118; Cell signaling technology) with anti-rabbit secondary detection module (DM-001; Bio-Techne). Post run, data was analysed using “Compass for SW” software for chemiluminescent detection. Peak fit was done using “dropped lines” method. Peak area for MLLT1 and GAPDH was used for the calculation of MLLT1 degradation with respect to DMSO control. Data was shown as “% degradation”. % Degradation was plotted against the respective doses (test compound concentration) and dose-response curve (DRC) was generated using four-parameter logistic equation (non-linear regression). Following parameters for each DRC was captured: DC50 (concentration in nM at which degradation is 50%, interpolated from standard curve and transformed to linear scale), Dmax (maximum % degradation observed). DC50 and Dmax data are captured in Table 7 for Example 1 and Example 110, which is a comparative example.

MLLT1 [2] = molecular target: T1, MLLT1; test: MLLT1 degradation assay in MV4-11 cells (JESS, 24 h); assay type: cell-based; parameters: endogenous in cells; host or cells: MV4-11 (ATCC CRL-9591); conditions: vs DMSO control
In short: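 MV4-11 cells treated at 1000, 100 and 10 nM (0.1% DMSO) for 24 h at 37° C; lysates (4 ug protein) run on JESS capillary immunoassay with MLLT1 and GAPDH antibodies. Peak areas give % degradation versus DMSO, binned A (≥75%) to D (<25%).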

In the case of Cc1nn(CCCCCCCC#Cc2cccc3c2CN(C2CCC(=O)NC2=O)C3=O)c2cc(C(=O)Nc3cc4[nH]c([C@H]5CCCN5C)cc4cn3)ccc12 (mixture of isomers) [Example 1, 1-(9-(2-(2,6-dioxopiperidin-3-yl)-1-oxoisoindolin-4-yl)non-8-yn-1-yl)-3-methyl-N-(2-((R)-1-methylpyrrolidin-2-yl)-1H-pyrrolo[3,2-c]pyridin-6-yl)-1H-indazole-6-carboxamide], the DC50 (MLLT1 [1]) was 0.5 nM, the Dmax (MLLT1 [1]; maximum % degradation observed) was 87% and the “MLLT1% Degradation @ 0.01 μM” value (MLLT1 [2]; 0.01 μM) was “A (Category A: A≥75% degradation)”. For the same molecule, the “MLLT1% Degradation @ 0.1 μM” value (MLLT1 [2]; 0.1 μM) was “A (Category A: A≥75% degradation)” and the “MLLT1% Degradation @ 1 μM” value (MLLT1 [2]; 1 μM) was “A (Category A: A≥75% degradation)”.
